# According to patent publication US11186564B2, “Dual NAV1.2/5HT2a inhibitors for treating CNS disorders” (Sunovion Pharmaceuticals Inc., priority 2016, dated 2021):
# Counter-ions that a name gives are not always drawn. Like-named read-outs stand apart in the source and are kept apart here.
# Legend:
# [1] = biological target: human sodium channel NaV1.2 (Homo sapiens, UniProt Q99250); assay: NaV1.2 inhibition, automated patch-clamp (Q-Patch HTX), slow inactivated state (state C); assay type: cell-based; details: for inhibition at 10 µM: read-out: NaV1.2 (% inh), 10 μM; for inhibition at 1 µM: 1 μM compound, read-out: NaV1.2 (% inh), 1 μM; for IC50: read-out: NaV1.2 IC50
# Description: In vitro method for NaV1.2 inhibition assays: The methods utilized to assess the inhibitory activity of compounds on NaV1.2 were based on the methods described by Liu et al. [Liu Y, Beck E J, & Flores C M (2011): Validation of a patch clamp screening protocol that simultaneously measures compound activity in multiple states of the voltage-gated sodium channel Nav1.2. Assay Drug Development Technology 9, 628-634]. For these electrophysiology assays, a cell line (Chinese Hamster Ovarian K-1 cells (CHO K-1)) engineered to stably express human sodium channel NaV1.2 was purchased from Millipore Corporation (catalog no. CYL3023). The electrophysiology measurements were performed using automated patch-clamp methods on a Q-Patch HTX instrument by scientists at Evotec AG under contract with Sunovion.
# The solutions utilized for the Qpatch experiments were similar buffered solutions to those described by Liu et al. [Liu Y, Beck E J, & Flores C M (2011)]. The extracellular solution contained 140 millimolar sodium chloride, 4 millimolar potassium chloride, 2 millimolar calcium chloride, 1 millimolar magnesium chloride, 10 millimolar 4-(2-hydroxyethyl)-1-piperazineethanesulfonic acid (HEPES), and 10 millimolar glucose (pH adjusted to 7.4 with sodium hydroxide). The intracellular solution contained 100 millimolar cesium fluoride, 45 millimolar cesium chloride, 10 millimolar HEPES, 5 millimolar ethylene glycol tetraacetic acid (EGTA), and 5 millimolar glucose (pH adjusted to 7.2 with cesium hydroxide).
# The biophysical experiments of Lui et al. [Liu Y, Beck E J, & Flores C M (2011)] were replicated to assess the fast, slow and total inactivation characteristics of the human Nav1.2 channel
# Based upon results from studies of the fast, slow and total inactivation characteristics of the human Nav1.2 channel, a voltage protocol involving a sequence of consecutive pulses of current was used to measure channel activity in several states [Liu Y, Beck E J, & Flores C M (2011)]. The monolayer of CHO K-1 cells stably expressing human sodium channel NaV1.2 (hNaV1.2 CHO cells) was maintained in the Qpatch instrument at a potential of −100 millivolts (mV) except when the voltage protocol was being executed. The first pulse in the protocol involved a 100 millisecond depolarization to 0 mV to enable measurement of channel availability in the closed state (state A). The potential was then maintained at −90 mV for 15 milliseconds, followed by a five millisecond period of depolarization to 0 mV to enable measurement of channel availability after partial recovery from fast inactivation (state B). Next, the potential was maintained at −90 mV for 300 milliseconds, followed by ten seconds at −50 mV, 15 milliseconds at −90 mV, and finally another five millisecond period of depolarization to 0 mV to enable measurement of channel availability after additional recovery from fast inactivation and significant entry into the slow inactivated state (state C). Finally, after an additional 300 millisecond period at −90 mV, another five millisecond period of depolarization to 0 mV was employed to enable measurement of channel availability after partial recovery from the slow inactivated state (state D). Measurements of activity at state C were used to assess the activity of the NaV1.2 channel in the slow inactivated state. Comparison of activity after addition of test compounds or reference compounds with activity after addition of vehicle only provided a measure of percent remaining activity from which percent inhibition was calculated. […] A slight modification of this protocol was utilized to provide measurements as a function of compound concentration, which enabled IC50 values to be determined. IC50 values were calculated by non-linear least squares regression of the data (percent inhibition of ion channel NaV1.2 activity in the slow inactivated state) onto equation (1): % inhibition=100%/(1+(IC50/[compound]) equation (1)
# J Pharmacol Exp Ther. 2008 July; 326(1):89-99.].
# [2] = biological target: T1, recombinant human serotonin receptor 5-HT2A (Homo sapiens, UniProt P28223); assay: 5-HT2A antagonist Ca2+ assay in CHO-K1 cells (method A aequorin luminescence / method B FLIPR fluorescence); assay type: cell-based; details: antagonist mode vs EC80 of reference agonist, method A or B
# T1 construct: expressed in transfected cells; method B: loaded with Ca2+ dye
# Method in brief: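 IC50 was obtained by nonlinear regression of percent inhibition of the EC80 agonist Ca2+ response in CHO-K1 cells stably expressing human 5-HT2A. The readout was aequorin luminescence with agonist injected 15 min after compound (A), or Ca2+-dye fluorescence on FLIPR with serotonin as agonist (B).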
# [3] = 10 μM compound, hNaV1.2 CHO cells, slow inactivated state
# [4] = hNaV1.2 CHO cells, slow inactivated state
# T1 sequence (P28223 whole entry): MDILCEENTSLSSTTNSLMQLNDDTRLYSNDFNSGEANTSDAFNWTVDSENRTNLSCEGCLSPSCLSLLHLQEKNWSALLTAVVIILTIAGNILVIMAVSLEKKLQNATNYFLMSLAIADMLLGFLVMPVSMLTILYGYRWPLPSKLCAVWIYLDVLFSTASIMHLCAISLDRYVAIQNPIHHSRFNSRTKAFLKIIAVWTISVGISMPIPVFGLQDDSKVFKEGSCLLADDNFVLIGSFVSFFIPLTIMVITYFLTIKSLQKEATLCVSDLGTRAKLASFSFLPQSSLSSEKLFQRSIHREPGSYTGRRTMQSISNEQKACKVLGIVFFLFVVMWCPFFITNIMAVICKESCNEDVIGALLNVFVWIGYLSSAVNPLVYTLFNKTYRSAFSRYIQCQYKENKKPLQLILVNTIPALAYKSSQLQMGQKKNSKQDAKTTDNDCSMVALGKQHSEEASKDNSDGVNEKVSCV
# human sodium channel NaV1.2, sequence (Q99250 whole entry): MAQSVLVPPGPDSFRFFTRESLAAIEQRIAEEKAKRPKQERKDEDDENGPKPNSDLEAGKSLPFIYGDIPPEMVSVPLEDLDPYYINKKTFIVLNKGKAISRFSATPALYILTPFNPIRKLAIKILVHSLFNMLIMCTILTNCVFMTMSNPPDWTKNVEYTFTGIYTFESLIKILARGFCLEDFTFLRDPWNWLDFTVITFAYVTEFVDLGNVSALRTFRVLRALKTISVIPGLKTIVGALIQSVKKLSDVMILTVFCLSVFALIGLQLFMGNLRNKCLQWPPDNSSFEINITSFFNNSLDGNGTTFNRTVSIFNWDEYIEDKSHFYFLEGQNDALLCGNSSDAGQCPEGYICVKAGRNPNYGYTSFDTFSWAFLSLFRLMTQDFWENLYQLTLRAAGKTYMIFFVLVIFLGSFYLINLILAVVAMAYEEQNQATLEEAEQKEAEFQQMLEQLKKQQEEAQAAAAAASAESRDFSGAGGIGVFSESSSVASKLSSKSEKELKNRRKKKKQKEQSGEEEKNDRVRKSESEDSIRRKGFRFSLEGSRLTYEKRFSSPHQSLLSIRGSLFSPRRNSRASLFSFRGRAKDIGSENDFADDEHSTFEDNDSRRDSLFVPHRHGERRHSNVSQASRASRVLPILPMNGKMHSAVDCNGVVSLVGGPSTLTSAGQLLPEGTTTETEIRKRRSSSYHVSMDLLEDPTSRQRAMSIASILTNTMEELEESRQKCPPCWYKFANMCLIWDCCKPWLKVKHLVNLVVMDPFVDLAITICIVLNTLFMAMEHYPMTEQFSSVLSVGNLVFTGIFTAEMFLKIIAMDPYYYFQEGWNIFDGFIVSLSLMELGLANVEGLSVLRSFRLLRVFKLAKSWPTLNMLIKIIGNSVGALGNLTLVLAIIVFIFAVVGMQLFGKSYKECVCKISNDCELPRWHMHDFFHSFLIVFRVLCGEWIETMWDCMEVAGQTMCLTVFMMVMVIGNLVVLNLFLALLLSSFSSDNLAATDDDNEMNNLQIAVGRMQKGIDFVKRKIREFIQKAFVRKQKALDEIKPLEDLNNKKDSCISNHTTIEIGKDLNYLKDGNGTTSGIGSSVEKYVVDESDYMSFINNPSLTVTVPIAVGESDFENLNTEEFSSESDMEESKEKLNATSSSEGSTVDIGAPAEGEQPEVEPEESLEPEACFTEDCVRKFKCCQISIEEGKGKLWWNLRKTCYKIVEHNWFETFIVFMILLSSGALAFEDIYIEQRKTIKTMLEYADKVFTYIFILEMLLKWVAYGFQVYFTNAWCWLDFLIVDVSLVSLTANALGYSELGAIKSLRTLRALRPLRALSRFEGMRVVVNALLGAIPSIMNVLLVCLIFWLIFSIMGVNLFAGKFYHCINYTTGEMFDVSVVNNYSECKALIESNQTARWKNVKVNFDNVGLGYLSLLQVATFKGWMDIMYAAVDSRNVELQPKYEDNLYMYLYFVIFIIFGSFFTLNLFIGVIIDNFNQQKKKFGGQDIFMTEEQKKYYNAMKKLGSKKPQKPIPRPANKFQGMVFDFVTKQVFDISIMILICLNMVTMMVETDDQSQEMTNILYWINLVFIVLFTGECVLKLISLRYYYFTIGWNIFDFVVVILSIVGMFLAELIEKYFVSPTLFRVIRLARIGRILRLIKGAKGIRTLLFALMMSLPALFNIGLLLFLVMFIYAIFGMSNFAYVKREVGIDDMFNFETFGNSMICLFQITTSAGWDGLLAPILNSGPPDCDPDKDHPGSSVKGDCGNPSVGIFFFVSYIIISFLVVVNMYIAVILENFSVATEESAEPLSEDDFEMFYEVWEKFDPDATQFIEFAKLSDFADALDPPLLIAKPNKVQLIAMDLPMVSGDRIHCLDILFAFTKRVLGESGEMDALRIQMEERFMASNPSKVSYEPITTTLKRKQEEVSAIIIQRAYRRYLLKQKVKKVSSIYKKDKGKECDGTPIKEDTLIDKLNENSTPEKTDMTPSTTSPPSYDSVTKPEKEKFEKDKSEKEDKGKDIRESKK
SMILES,IC50 ([2]; read-out: 5HT2A IC50),"IC50 [1, 4]",other results
"O=C1c2ccccc2CCN1CCN1CCC(Oc2cccc(F)c2)CC1 [Example 193, 2-(2-(4-(3-fluorophenoxy)piperidin-1-yl)ethyl)-3,4-dihydroisoquinolin-1(2H)-one]",0.33 µM,,"inhibition at 10 µM [1, 3]: 66%"
"O[C@H](CO[C@H]1CCCc2ccccc21)CN1CCN(Cc2ccccc2)CC1 [Example 87, (S)-1-(4-benzylpiperazin-1-yl)-3-(((S)-1,2,3,4-tetrahydronaphthalen-1-yl)oxy)propan-2-ol]",3.63 µM,,"inhibition at 1 µM [1, 4]: 15%"
"O[C@@H](CO[C@H]1CCc2ccccc21)CN1CCC(Oc2ccc(F)cc2)CC1 [Example 238, (R)-1-(((S)-2,3-dihydro-1H-inden-1-yl)oxy)-3-(4-(4-fluorophenoxy)piperidin-1-yl)propan-2-ol]",0.24 µM,,"inhibition at 1 µM [1, 4]: 47%"
"O=C1c2ccncc2CCN1CCN1CCC(Oc2ccc(F)cc2)CC1 [Example 203, 2-(2-(4-(4-fluorophenoxy)piperidin-1-yl)ethyl)-3,4-dihydro-2,6-naphthyridin-1(2H)-one]",0.07 µM,,"inhibition at 10 µM [1, 3]: 14%"
"COc1ccc2c(c1)C(CN1CCC(OCc3ccccc3C)CC1)CC2 (stereo not drawn) [Example 242, 1-((6-methoxy-2,3-dihydro-1H-inden-1-yl)methyl)-4-((2-methylbenzyl)oxy)piperidine]",0.09 µM,230 nM,
"COc1ccccc1CN1CCC2(CCN(CC3CCc4ccccc43)C2)C1 (stereo not drawn) [Example 347, 2-((2,3-dihydro-1H-inden-1-yl)methyl)-7-(2-methoxybenzyl)-2,7-diazaspiro[4.4]nonane]",0.03 µM,3190 nM,
"OC(CO[C@H]1CCc2ccccc21)CN1CC[C@@H](Oc2ccc(F)cc2)C1 (stereo partly drawn) [Example 42, 1-(((S)-2,3-dihydro-1H-inden-1-yl)oxy)-3-((R)-3-(4-fluorophenoxy)pyrrolidin-1-yl)propan-2-ol]",0.83 µM,750 nM,
"c1ccc2c(c1)CCC1(CCN(CCC3CCc4ccccc43)CC1)O2 (stereo not drawn) [Example 418, 1′-(2-(2,3-dihydro-1H-inden-1-yl)ethyl)spiro[chromane-2,4′-piperidine]]",0.16 µM,1130 nM,
"O=C1c2ccccc2CCN1CCCN1CCC(Oc2cccnc2)CC1 [Example 220, 2-(3-(4-(pyridin-3-yloxy)piperidin-1-yl)propyl)-3,4-dihydroisoquinolin-1(2H)-one]",0.49 µM,,"inhibition at 10 µM [1, 3]: 12%"
"OC(COC1CCCCC1)CN1C[C@@H]2CC[C@H]1CN2c1ccccc1 (stereo partly drawn) [Example 317, 1-(cyclohexyloxy)-3-((1S,4S)-5-phenyl-2,5-diazabicyclo[2.2.2]octan-2-yl)propan-2-ol]",0.49 µM,1830 nM,
"Fc1ccc(OC2CCN(CCC3CCc4ccncc43)CC2)cc1 (stereo not drawn) [Example 174, 7-(2-(4-(4-fluorophenoxy)piperidin-1-yl)ethyl)-6,7-dihydro-5H-cyclopenta[c]pyridine]",0.01 µM,,"inhibition at 1 µM [1, 4]: 12%"
"COc1ccc2c(c1)C(CN1CC3(CC(Oc4ccc(F)cc4)CO3)C1)CC2 (stereo not drawn) [Example 369, 7-(4-fluorophenoxy)-2-((6-methoxy-2,3-dihydro-1H-inden-1-yl)methyl)-5-oxa-2-azaspiro[3.4]octane]",0.29 µM,,"inhibition at 10 µM [1, 3]: 64%"
"O[C@H](COC1CCCCC1)CN1CCC2(CCc3ccccc3O2)CC1 [Example 437, (S)-1-(cyclohexyloxy)-3-(spiro[chromane-2,4′-piperidin]-1′-yl)propan-2-ol]",0.09 µM,3410 nM,
"O[C@H](COC1CCCCC1)CN1[C@@H]2CC[C@H]1CN(c1ccccc1)C2 [Example 287, (S)-1-(cyclohexyloxy)-3-((1R,5S)-3-phenyl-3,8-diazabicyclo[3.2.1]octan-8-yl)propan-2-ol]",,580 nM,"IC50 ([2]; 5HT2A IC50, μM): 0.03 µM"
"c1ccc([C@H]2COC3(CCN(C[C@@H]4CCc5ccccc54)CC3)C2)cc1 (single isomer, unassigned) [Compound 378]",0.06 µM,770 nM,
"CC(C1CCc2ccccc21)N1CCC(Oc2ccc(F)cc2)CC1 (stereo not drawn) [Example 123, 1-(1-(2,3-dihydro-1H-inden-1-yl)ethyl)-4-(4-fluorophenoxy)piperidine]",0.44 µM,,"inhibition at 1 µM [1, 4]: 71%"
"N#Cc1ccccc1OC1CCN(CC2CCOc3ccccc32)CC1 (stereo not drawn) [Example 161, 2-((1-(chroman-4-ylmethyl)piperidin-4-yl)oxy)benzonitrile]",0.05 µM,,"inhibition at 1 µM [1, 4]: 12%"
"Fc1ccc(OC2CCN(CC3Cc4ccncc4C3)CC2)cc1 (stereo not drawn) [Example 158, 6-((4-(4-fluorophenoxy)piperidin-1-yl)methyl)-6,7-dihydro-5H-cyclopenta[c]pyridine]",0.15 µM,,"inhibition at 1 µM [1, 4]: -15%"
"c1ccc(OC2COC3(CCN(CC4CCc5ccccc54)CC3)C2)cc1 (single isomer, unassigned) [Example 380, 8-((2,3-dihydro-1H-inden-1-yl)methyl)-3-phenoxy-1-oxa-8-azaspiro[4.5]decane]",0.15 µM,120 nM,
"COc1cccc(OCCN2CCC(Oc3ccccc3)CC2)c1 [Example 224, 1-(2-(3-methoxyphenoxy)ethyl)-4-phenoxypiperidine]",0.17 µM,,"inhibition at 10 µM [1, 3]: 81%"
"COc1cccc(OC2CCN(CCN3CCc4ccccc4C3=O)CC2)c1 [Example 195, 2-(2-(4-(3-methoxyphenoxy)piperidin-1-yl)ethyl)-3,4-dihydroisoquinolin-1(2H)-one]",0.26 µM,1500 nM,
"Fc1ccc(OC2CCN(CC3COc4ccccc43)CC2)cc1 (stereo not drawn) [Example 134, 1-((2,3-dihydrobenzofuran-3-yl)methyl)-4-(4-fluorophenoxy)piperidine]",0.02 µM,,"inhibition at 1 µM [1, 4]: 14%"
"OC(COC1CCCCC1)CN1CC[C@H]2C[C@@H]1CN2c1ccccc1 (stereo partly drawn) [Example 325, 1-(cyclohexyloxy)-3-((1R,5S)-6-phenyl-2,6-diazabicyclo[3.2.1]octan-2-yl)propan-2-ol]",0.25 µM,220 nM,
"COc1ccc2c(c1)C(CN1CCC(Oc3ccc(F)cc3)CC1)CC2 (stereo not drawn) [Example 113, 4-(4-fluorophenoxy)-1-((6-methoxy-2,3-dihydro-1H-inden-1-yl)methyl)piperidine hydrochloride]",0.002 µM,550 nM,
"COc1ccccc1O[C@@H]1CCN(CCC2CCOc3ccccc32)[C@@H](C)C1 (stereo partly drawn) [Example 182, (2S,4R)-1-(2-(chroman-4-yl)ethyl)-4-(2-methoxyphenoxy)-2-methylpiperidine]",0.2 µM,,"inhibition at 1 µM [1, 4]: 52%"
"OC(COC1CCCCC1)CN1CCC2(CCc3ccccc32)CC1 (stereo not drawn) [Example 400, 1-(cyclohexyloxy)-3-(2,3-dihydrospiro[indene-1,4′-piperidin]-1′-yl)propan-2-ol]",,,"inhibition at 10 µM ([1]; CHO): 102%; IC50 ([2]; 5HT2A IC50, μM): 2.29 µM"
"OC(COC1CCCCC1)CN1C[C@H]2CC[C@@H](C1)N2c1ccccc1 (stereo partly drawn) [Example 299, 1-(cyclohexyloxy)-3-((1R,5S)-8-phenyl-3,8-diazabicyclo[3.2.1]octan-3-yl)propan-2-ol]",1.72 µM,3570 nM,
